Assay results as given in PMC8746696 (Molecules, 2021).

Key:
HeLa cells [1] = assay: Influence on topotecan cytotoxicity (sensitization, combination index); format: cell-based, human; conditions: compound 5 μM
recombinant human TDP2 = biological target: T1, recombinant human TDP2 (Homo sapiens, UniProt O95551); assay: Gel-based TDP2 activity assay (removal of 5'-tyrosine from oligonucleotide, PAGE); format: biochemical; design: key to Tdp2 activity, c 200 µM / Tdp2 (inhibitor concentration 1 mM): TDP2 active (+); -: inactive (−); conditions: for Tdp2 activity, c 200 µM: c 200 µM (Table S3 head); for Tdp2 (inhibitor concentration 1 mM) / remaining activity at 1000 µM: inhibitor 1 mM; for remaining activity at 1000 µM: residual enzyme activity, read-out: TDP2 (Inhibitor Concentration 1 mM), residual activity of TDP2
T1 sequence (O95551 1-362): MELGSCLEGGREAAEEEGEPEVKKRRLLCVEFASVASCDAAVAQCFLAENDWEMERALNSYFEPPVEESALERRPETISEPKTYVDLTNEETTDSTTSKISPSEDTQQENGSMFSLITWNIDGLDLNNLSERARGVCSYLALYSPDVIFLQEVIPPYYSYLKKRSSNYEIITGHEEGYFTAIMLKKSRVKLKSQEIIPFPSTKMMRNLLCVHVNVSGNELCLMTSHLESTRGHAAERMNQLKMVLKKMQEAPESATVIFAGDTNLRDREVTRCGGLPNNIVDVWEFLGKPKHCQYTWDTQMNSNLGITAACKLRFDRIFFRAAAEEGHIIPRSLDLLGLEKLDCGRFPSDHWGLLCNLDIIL
Description: We investigated the activity against the TDP2 enzyme for compounds 4–10, 12–15, and 17–19 (Table 1). TDP2 was tested for its ability to eliminate tyrosine residue from the 5’-end of the oligonucleotide substrate. The TDP2 reaction products were separated under denaturing conditions in polyacrylamide gel (PAGE). […] Note that as different assays formats were used for TDP1 and TDP2 inhibition, the value of these assays cannot be directly compared. A paper on derivatives of usnic acid as effective TDP1 inhibitors and mild inhibitors of TDP2 was recently published. […] More inhibitors of this enzyme have also been reported in the literature. Obviously, further work for increasing activity against TDP2 is needed.
The oligonucleotide with tyrosine residue on the 5′-end (5′-tyrosine-AAC GTC AGG GTC TTC C-FAM-3′) was used for the TDP2 enzyme activity assay. The TDP2 reaction products were separated under denaturing conditions in polyacrylamide gel (PAGE). The reaction was performed in a final volume of 20 μL using 100 nM substrate incubated with 200 nM recombinant human TDP2 in the absence or presence of the inhibitor for 10 min at 37 °C in a buffer containing 50 mM Tris-HCl, pH 8.0, 50 mM NaCl, 7 mM β-mercaptoethanol. Reactions were terminated by the addition of gel loading buffer contained 10% formamide, 7 M carbamide, 0.1% xylene cyanol, and 0,1% bromophenol blue. The samples were heated at 90 °C for 7 min before loading on the gel. The reaction products were separated by electrophoresis in a 20% denaturing PAGE with 7 M carbamide. A Typhoon FLA 9500 phosphorimager (GE Healthcare) was used for gel scanning and imaging. Each experiment was carried out in three independent replicates. The data were analyzed with QuantityOne 4.6.7 software.

[2] = Intrinsic cytotoxicity, EZ4U assay, HeLa; conditions: human, HeLa cells
Description: (§1) Next, we examined the intrinsic cytotoxicity of the compounds on HeLa cervical cancer cells and human embryonic kidney derived cells HEK293A.
(§2) Cytotoxicity of the compounds to HeLa (human cervical cancer) and HEK293A (human embryonic kidney) cell lines was examined using the EZ4U Cell Proliferation and Cytotoxicity Assay (Biomedica, Vienna, Austria), according to the manufacturer’s protocols. The cells were grown in Iscove’s modified Dulbecco’s medium (IMDM) with 40 μg/mL gentamicin, 50 IU/mL penicillin, 50 μg/mL streptomycin (MP Biomedicals, Waltham, MA, USA), and 10% of fetal bovine serum (Biolot, Saint Petersburg, Russia) in a 5% CO2 atmosphere. After the formation of a 30–50%monolayer, the tested compounds were added to the medium. […] The volume of the added reagents was 1/100 of the total volume of the culture medium, and the amount of DMSO was 1% of the final volume. Control cells were grown in the presence of 1% DMSO. The cell culture was monitored for three days.

HeLa cells [3] = assay: Intrinsic cytotoxicity, EZ4U assay, HeLa
Description: as §1, §2

HeLa cells [4] = assay: Influence on topotecan cytotoxicity (sensitization, combination index); format: cell-based, human
Description: The inhibitors were studied, using their non-toxic concentration, to determine the cytotoxicity of topotecan, which is widely used in the treatment of cancer.
The concentration of these two compounds was increased to 10 μM and a more distinct effect was observed (Figure 3B). The combination index (CI) for different concentrations of topotecan and 5 at 10 μM was in the range 0.26–0.44, and for 8 at 10 μM, it was 0.18–0.30 (Supplementary Materials, Tables S1 and S2). CI value <1 indicates a synergistic effect of topotecan and compounds 5 and 8 [34].
The cell culture was monitored for three days.

TDP1 = TDP1 (Homo sapiens, UniProt Q9NUW8); assay: Real-time fluorescence detection of TDP1 activity (FAM/BHQ1 oligonucleotide biosensor); format: biochemical; conditions: concentration that inhibits the activity of the enzyme by 50%; read-out: TDP1 IC50
Sequence of TDP1 (Q9NUW8 whole entry): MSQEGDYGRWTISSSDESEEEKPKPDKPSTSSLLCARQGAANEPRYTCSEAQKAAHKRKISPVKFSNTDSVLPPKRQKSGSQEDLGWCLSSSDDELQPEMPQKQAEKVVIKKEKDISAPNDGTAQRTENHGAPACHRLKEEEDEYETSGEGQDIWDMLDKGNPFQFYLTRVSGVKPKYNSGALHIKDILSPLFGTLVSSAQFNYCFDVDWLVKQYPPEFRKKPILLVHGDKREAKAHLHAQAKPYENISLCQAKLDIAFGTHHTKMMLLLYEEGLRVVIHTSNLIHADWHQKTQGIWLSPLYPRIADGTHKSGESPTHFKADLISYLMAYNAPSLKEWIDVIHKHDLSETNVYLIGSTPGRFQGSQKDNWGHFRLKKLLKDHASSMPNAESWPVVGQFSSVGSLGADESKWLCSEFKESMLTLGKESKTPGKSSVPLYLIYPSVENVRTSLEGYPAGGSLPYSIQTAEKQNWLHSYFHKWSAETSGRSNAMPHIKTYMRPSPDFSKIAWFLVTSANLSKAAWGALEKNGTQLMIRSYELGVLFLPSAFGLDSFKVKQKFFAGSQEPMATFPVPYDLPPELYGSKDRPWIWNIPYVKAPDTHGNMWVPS
Source text: For real-time detection of TDP1 activity, we used the oligonucleotide biosensor based on the ability of TDP1 to remove fluorophore quenchers from the 3′-end of DNA [29]. The hexadecameric oligonucleotide carried 5(6)-carboxyfluorescein (FAM) at the 5′-end and fluorophore quencher BHQ1 (Black Hole Quencher-1) at the 3′-end. TDP1 inhibitors prevent the removal of fluorophore quenchers, thus reducing fluorescence intensity.
TDP1 activity was detected, as described by intensity measurement in a reaction of quencher removal from a fluorophore quencher–coupled DNA oligonucleotide catalyzed by TDP1. The reaction was carried out at different concentrations of inhibitors (the control samples contained 1% of DMSO). The reaction mixtures contained TDP1 buffer (50 mM Tris-HCl pH 8.0, 50 mM NaCl, and 7 mM β-mercaptoethanol), 50 nM biosensor, and an inhibitor being tested. Purified TDP1 (1.5 nM) triggered the reaction. The biosensor (5′-[FAM] AAC GTC AGGGTC TTC C [BHQ]-3′) was synthesized in the Laboratory of Nucleic Acid Chemistry at the Institute of Chemical Biology and Fundamental Medicine (Novosibirsk, Russia).
The reactions were incubated on a POLARstar OPTIMA fluorimeter (BMG LABTECH, GmbH, Ortenberg, Germany) to measure fluorescence every 60 s (ex. 485/em. 520 nm) during the linear phase (here, data from minute 0 to minute 8). The values of IC50 were determined using a six-point concentration response curve in a minimum of three independent experiments and were calculated using MARS Data Analysis 2.0 (BMG LABTECH, Ortenberg, Germany).

[5] = Intrinsic cytotoxicity, EZ4U assay, HEK293A; conditions: human, HEK293A cells
Description: as §1, §2

HeLa cells [6] = tested on: HeLa cells
Description: as §1, §2

Compound	sensitizing effect on topotecan cytotoxicity (HeLa cells [1])	Tdp2 activity, c 200 µM (recombinant human TDP2)	Tdp2 (inhibitor concentration 1 mM) (recombinant human TDP2)	remaining activity at 1000 µM (recombinant human TDP2) [%]	CC50 at 72 h [2] [µM]	HeLa cell death (HeLa cells [3]; at 100 μM)	CI (HeLa cells [4]; Dose Tpc 0.3 + compound 10 μM)	Effect (HeLa cells [4]; Dose Tpc 0.3 + compound 10 μM)	CI (HeLa cells [4]; Dose Tpc 0.5 + compound 10 μM)	Effect (HeLa cells [4]; Dose Tpc 0.5 + compound 10 μM)	CI (HeLa cells [4]; Dose Tpc 1.0 + compound 10 μM)	Effect (HeLa cells [4]; Dose Tpc 1.0 + compound 10 μM)	CI (HeLa cells [4]; Dose Tpc 2.0 + compound 10 μM)	Effect (HeLa cells [4]; Dose Tpc 2.0 + compound 10 μM)	CI (HeLa cells [4]; Dose Tpc 4.0 + compound 10 μM)	Effect (HeLa cells [4]; Dose Tpc 4.0 + compound 10 μM)	IC50 (TDP1) [µM]	CC50 at 72 h [5] [µM]	HeLa cell death (HeLa cells [3]; at 20 μM) [%]	semi-toxic concentrations (HeLa cells [6])
C[C@H](CCC(=O)NCCc1c[nH]c2ccccc12)[C@H]1CC[C@H]2[C@@H]3CC[C@@H]4C[C@H](OCc5ccccc5)CC[C@]4(C)[C@H]3C[C@H](O)[C@]12C [Compound 5, N-(2″-(1H-Indol-3′-yl)ethyl)-3α-benzyloxy-12α-hydroxy-5β-cholane-24-amide]	greatest sensitizing effect	+	+	28 ± 5	> 100	40%	0.4463	0.61	0.3748	0.76	0.3937	0.86	0.2628	0.95	0.4189	0.96	0.24 ± 0.01	> 100		
C[C@H](CCC(=O)Nc1ccc(Br)cc1)[C@H]1CC[C@H]2[C@@H]3CC[C@@H]4C[C@H](OCc5ccccc5)CC[C@]4(C)[C@H]3C[C@H](O)[C@]12C [Compound 8, N-(4′-Bromophenyl)-3α-benzyloxy-12α-hydroxy-5β-cholane-24-amide]	greatest sensitizing effect	+	+	47 ± 3	> 100	maintaining this level of toxicity			0.2446	0.67	0.2817	0.78	0.1757	0.92	0.3046	0.93	0.57 ± 0.3	> 100	40	
C[C@H](CCC(=O)NCCCc1cc(C(C)(C)C)c(O)c(C(C)(C)C)c1)[C@H]1CC[C@H]2[C@@H]3CC[C@@H]4C[C@H](OCc5ccccc5)CC[C@]4(C)[C@H]3C[C@H](OCc3ccccc3)[C@]12C [Compound 10, N-(3″-(3′,5′-Di-tert-butyl-4′-hydroxyphenyl)propyl)-3α,12α-dibenzyloxy-5β-cholane-24-amide]		+	+	45 ± 6	> 100												0.37 ± 0.17	> 100		
COc1cc([C@@H]2c3cc4c(cc3[C@@H](O[C@@H]3O[C@@H]5CO[C@@H](C)O[C@H]5[C@H](O)[C@H]3O)[C@H]3COC(=O)[C@H]23)OCO4)cc(OC)c1O [Etoposide, reference compound]					6.2 ± 0.6													5.9 ± 1.8		micromolar
CC[C@@]1(O)C(=O)OCc2c1cc1n(c2=O)Cc2cc3c(CN(C)C)c(O)ccc3nc2-1 [Topotecan, reference compound]					0.9 ± 0.1													0.33 ± 0.07		submicromolar
